For data set [1], the system named is SCC25. The data set can be described thus: Additional cell proliferation assay, SCC25. It counts as cell-based, human. The note with it: SCC25, 24 hour treatment. An excerpt: (§1) Observed reductions in cell proliferation in these additional in vitro studies are as follows: SCC4, 40%; HSC3, 50%; SCC25, 80%; Cal27, 15%; MDA231, 56%; and LnCap, 37%.
Data set [2] is described as follows: Liver and kidney function tests of tumor bearing mice. The settings on record: 40 μg CPZ intra-tumoral every other day over 14 days. The format is in vivo. As for the experimental part:
FIG. 14. Liver and kidney function tests of tumor bearing mice following two week treatment with either vehicle control (Control) or 40 μg CPZ in 40 μl Veh medium (1 μg/μl) injected directly into tumor every other day over 14 days (CPZ).
(§2) Treatments. CPZ (5 mg) was diluted in 250 μl of 100% DMSO to yield a final concentration of 20 μg/μl of stock solution. Stock solution (100 m) was subsequently diluted in 7% DMSO in sterile saline generating a final concentration of 1 μg/μl. A total of 40 μg in 40 μl was injected intra-tumorally. Control xenografts were injected intra-tumorally with 40 μl of vehicle control (7% DMSO). Mice were monitored daily for tumor growth, cachexia, and weight loss. Tumor volumes and body weight were recorded every other day. Tumor volumes were calculated by the formula: (4π/3)×(w/2)2×(l/2), where w=width and l=length. Measurements were made using a digital caliper. […]
At the conclusion of the experiment, serum was collected for liver and kidney function analysis. […] Tumors were analyzed histologically using H&E (hematoxylin and eosin) and TUNEL (terminal deoxyribonucleotidyl transferase-mediated dUTP nick end labeling) staining for detection of DNA fragmentation associated with apoptosis, and apoptotic figures were quantified. […]

Another data set relates to SCC4 xenografts. The data set can be described thus: OSCC mouse xenograft model, SCC4. It counts as in vivo, athymic nude (nu/nu) mice.
From the text: Animals. Six week-old female athymic nude (nu/nu) mice were purchased from HARLAN Laboratories (Indianapolis, Ind.) and used in a laminar air-flow cabinet under pathogen-free conditions. They were provided with a 12-h light/dark schedule at controlled temperature and humidity with food and water ad libitum. Mice were allowed to acclimate for at least one week prior to the start of the experiments. All procedures were approved by the UTHSCSA (University of Texas Health Science Center—San Antonio) Institutional Animal Care and Use Committee.
OSCC Mouse Xenograft Model. Mice were injected subcutaneously in the right flank with 2×10^6 HSC3, SCC4, or SCC25 cells in 0.1 ml of sterile phosphate buffered saline (each of these cell lines is published in scientific literature). Four weeks post-inoculation, tumors had grown to an average volume of 110 mm^3. Mice were then divided into two experimental groups of five animals each, which received the following treatments as intra-tumoral injections: group A, vehicle control (7% DMSO in sterile saline); group B, CPZ treatment (40 μg). The injections were repeated every other day and for a total of at least 14 days.
as §2, with “A total of 40 μg in 40 μl was injected intra-tumorally.” left out, “caliper. At the conclusion of the experiments, mice were anaesthetized with isoflurane and cervical dislocation, blood was collected, and the serum was separated and stored at −80° C. until assayed. Biochemical analysis of serum was performed by the Mouse Metabolic Phenotyping Center (Yale School of Medicine, New Haven, Conn.).” for “caliper.”

For data set [3], the system named is immortalized human bronchiolar epithelial cell line transformed with a TRPV1 insert. The note with it: TRPV1-overexpressing cultured cells; cited from earlier work.
A short description of data set [4]: Tolerability observations in tumor bearing mice treated intratumorally. It counts as in vivo. The procedure:
Treatments. CPZ (5 mg) was diluted in 250 μl of 100% DMSO to yield a final concentration of 20 μg/μl of stock solution. Stock solution (100 m) was subsequently diluted in 7% DMSO in sterile saline generating a final concentration of 1 μg/μl. A total of 40 μg in 40 μl was injected intra-tumorally. Control xenografts were injected intra-tumorally with 40 μl of vehicle control (7% DMSO). Mice were monitored daily for tumor growth, cachexia, and weight loss. Tumor volumes and body weight were recorded every other day. Tumor volumes were calculated by the formula: (4π/3)×(w/2)2×(l/2), where w=width and l=length. Measurements were made using a digital caliper. At the conclusion of the experiments, mice were anaesthetized with isoflurane and cervical dislocation, blood was collected, and the serum was separated and stored at −80° C. until assayed. Biochemical analysis of serum was performed by the Mouse Metabolic Phenotyping Center (Yale School of Medicine, New Haven, Conn.). Tumors were dissected and placed in 10% neutral buffered formalin (SIGMA, St. Louis, Mo.) and processed for histological analysis.

For the next data set, the system named is OSCC xenografts. The experiment in a line: TUNEL staining of OSCC xenografts. It counts as in vivo, mice. The note with it: CPZ treated xenografts, p<0.001. As for the experimental part:
FIG. 15A-15C. TUNEL staining of OSCC xenografts. FIG. 15A: Representative photomicrograph of TUNEL stain of HSC3 xenograft (10×) treated with vehicle control. […] FIG. 15B: Number of apoptotic figures per field in vehicle and 40 μg capsazepine (CPZ) treated SCC4 xenografts. FIG. 15C: Number of apoptotic figures per field in vehicle and CPZ (20 m) treated SCC25 xenografts. Student's T-Test of the average of six fields with n=3; ***p<0.001.
At the conclusion of the experiment, serum was collected for liver and kidney function analysis. […] Tumors were analyzed histologically using H&E (hematoxylin and eosin) and TUNEL (terminal deoxyribonucleotidyl transferase-mediated dUTP nick end labeling) staining for detection of DNA fragmentation associated with apoptosis, and apoptotic figures were quantified. [FIGS. 15-1 to 15-3] […] Therefore, CPZ empirically has shown promise for being a well-tolerated treatment for OSCC.

For data set [5] the following is noted: rat model, high intravenous administration dose; cited from earlier work.
The test system of data set [6] is prostate cancer cell line LnCap. The experiment in a line: Additional cell proliferation assay, LnCap. The format is cell-based. The settings on record: 24 hour treatment.
From the text: as §1

Data set [7] concerns SCC25. The experiment in a line: Cell cycle analysis by DNA profile FACS, SCC25. The format is cell-based, human. The note with it: 24 hours. As for the experimental part:
In particular, Table 1 provides additional cell cycle distribution data of OSCC cells (%) treated with 0 μM, 30 μM, 60 μM, or 90 μM CPZ for 24 hours. Data for OSCC cell lines HSC3, SCC4, and SCC25 are also provided in diagrams of FIGS. 1G-1, 1G-2, and 1G-3, respectively.

As to `Oc1cc2c(cc1O)CN(C(=S)NCCc1ccc(Cl)cc1)CCC2` [CPZ, 2-[2-(4-chlorphenyl)ethylamino-thiocarbonyl]-7,8-dihydroxy-2,3,4,5-tetrahydro-1H-2-benzazepine], the “reduction in cell proliferation” value in the data set with SCC25 [1] came to 80%. Also, the “liver and kidney function” value in [2] is “No negative effects on liver or kidney function were detected”. In addition, in the data set on SCC4 xenografts (40 μg CPZ intra-tumoral every other day, two weeks, p<0.05), the tumor growth rate entry was “significant reduction in tumor growth rate”. Moreover, in the data set with SCC4 xenografts (40 μg CPZ, day sixteen, p<0.01), the “growth of vehicle-control-treated tumors versus CPZ treated” value was “two-fold greater”. Moreover, in the data set with SCC4 xenografts (60 μg CPZ, repeat experiments (data not shown)), the “difference in tumor growth rates between vehicle control and treated mice” value stood at 3 fold. In addition, the “reversal of CAP-induced apoptosis by CPZ” value in data set [3] is recorded as “failed to reverse these effects”. Also, the body weight result in data set [4] (approximately two-week intra-tumoral CPZ treatment) is given as “did not lose weight”. In data set [4] (intratumoral injection with CPZ), the adjacent healthy tissues result is listed as “No inflammation, ulceration, necrosis or pain were evident”. Also, the “apoptotic figures in treated tumors (TUNEL)” value in the data set on OSCC xenografts is recorded as “significant increase in apoptotic figures”. For the same molecule, the hyperthermia result in data set [5] is “does not cause hyperthermia”. In data set [6], the “reduction in cell proliferation” value is 37%. In the data set with SCC25 [7] (SCC25, CPZ 30 μM), this molecule returned a G0/G1 of 42.92%, a G2/M of 3.3%, an S of 9.01% and a SubG1 of 44.77%. Further, in the data set with SCC25 [7] (SCC25, CPZ 60 μM), the G0/G1 is on record as 28.63%, the G2/M is listed as 6.11%, the S amounted to 14.78% and the SubG1 came to 50.48%. In the data set with SCC25 [7] (SCC25, CPZ 90 μM), this molecule yielded a G0/G1 of 17.23%, a G2/M of 2.5%, an S of 10.36% and a SubG1 of 69.91%.

These data come from patent publication US9642859B2, “Use of capsazepine and analogs thereof to treat cancer” (THE BOARD OF REGENTS OF THE UNIVERSITY OF TEXAS SYSTEM, priority 2012, dated 2017).
